This assay deals with T1, human FXR (Homo sapiens, UniProt Q96RI1).
T1 construct: expressed in transfected cells; host or cells: HEK293 cells stably carrying a 5xGal4-response-element firefly luciferase reporter, transiently transfected with pcDNA3.1-Gal4-FXR
T1 sequence (Q96RI1 262-486 limits assumed): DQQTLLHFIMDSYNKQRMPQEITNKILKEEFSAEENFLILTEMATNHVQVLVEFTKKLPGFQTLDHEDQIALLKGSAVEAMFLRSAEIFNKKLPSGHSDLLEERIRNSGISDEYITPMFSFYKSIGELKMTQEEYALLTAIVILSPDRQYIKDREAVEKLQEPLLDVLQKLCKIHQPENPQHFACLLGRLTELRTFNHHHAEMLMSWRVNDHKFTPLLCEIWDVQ
The assay can be described thus: transient human FXR/Gal4-luciferase reporter assay. It counts as cell-based. To be noted: Gal4-hFXR fusion construct, luciferase reporter HEK293 cells, response relative to 8 μM GW-4064. The procedure:
The exemplified compounds of the present invention were tested in the transient human FXR/Gal4-luciferase reporter assay, and assay results were reported in Table 1 and Examples 1 to 3 together with other analytical data.
A Gal4-hFXR fusion construct reporter system was used as the primary assay to characterize compound activity. A construct including 5 copies of the Gal4 promoter response element upstream of a firefly luciferase reporter cDNA was stably expressed in HEK293 cells. This reporter cell line was maintained in Dulbecco's Modified Eagle's medium (DMEM; Gibco) supplemented with 1% penicillin-streptomycin (P/S) solution, 500 μg/mL Zeocin and 10% charcoal/dextran-treated fetal bovine serum (cs-FBS) at 37° C. in a humidified 5% CO2 atmosphere. Another plasmid was constructed in which the human cytomegalovirus promoter in the pcDNA3.1 vector directs the expression of the cDNA encoding a fusion protein comprised of the DNA binding domain from the Gal4 transcription factor fused to the ligand binding domain from human FXR.
The day prior to transfection, the reporter cells in culture are detached from the plate with trypsin and plated into a T75 flask at a sufficient density to achieve approximately 90% confluence the next morning. The transfection reagents are prepared by separately diluting 25 μg of the pcDNA3.1-Gal4-FXR plasmid into 1.87 mL of Opti-MEM (Thermo-Fisher), and 40 μL of Lipofectamine 2000 (Thermo-Fisher) into 1.87 mL of Opti-MEM, and then adding the diluted DNA solution into the diluted Lipofectamine 2000 solution and incubating at room temperature for 15-20 minutes. The mixture is further diluted with 10 mL of a solution comprised of DMEM, 10% cs-FBS, and 1% P/S immediately prior to transferring to the cells. The maintenance culture media is aspirated from the cells and the final transfection mixture is added before the cells are incubated overnight at 37° C. in a humidified 5% CO2 atmosphere. This protocol can be scaled up, and the transiently transfected cells can be cryopreserved in an assay-ready format.
For compound testing, 100 nL of the compounds (serial dilutions in DMSO) are dispensed with an Echo acoustic dispenser (Labcyte) into the wells of a Corning/Costar clear bottom 384-well white plate. The transfected cells are harvested, counted, and diluted such that 10-25,000 cells in 25 μL are plated into each well of the 384-well compound assay plate. The compound-treated cells are incubated overnight at 37° C. in a humidified 5% CO2 atmosphere. The next morning 25 μL of Steady-Glo (Promega) are added to each well of the plate, the mixture is incubated for 15 min. with shaking, and luminescence is measured on an Envision (Perkin Elmer) plate reader. Background counts from cells treated with DMSO alone are subtracted from all raw counts, and the corrected values are converted to a percentage of the control response attained with 8 μM GW-4064.
For orientation: In a reporter assay the amount or activity of a reporter protein is the signal.

pEC50: −log10 of the molar value.

Regarding `Cc1cc(OCC2CC3(CC(/C=C/c4c(-c5ccccc5C(F)(F)F)noc4C4CC4)C3)C2)cnc1C(=O)O` (single isomer, unassigned) [Example 31, (E)-5-((6-(2-(5-Cyclopropyl-3-(2-(trifluoromethyl)phenyl)isoxazol-4-yl)vinyl)spiro [3.3]heptan-2-yl)methoxy)-3-methylpicolinic acid], the pEC50 (in general, the EC50 on a negative log10 scale, so that one unit is a factor of ten) (unit inferred) was 6.86.

`COc1cc(C(=O)O)nc2ccc(N3CC4(CC(/C=C/c5c(-c6c(Cl)cncc6Cl)noc5C5CC5)C4)C3)cc12` [Example 1, (E)-6-(6-(2-(5-Cyclopropyl-3-(3,5-dichloropyridin-4-yl)isoxazol-4-yl)vinyl)-2-azaspiro[3.3]heptan-2-yl)-4-methoxyquinoline-2-carboxylic acid] gave a negative logarithm of the EC50 (pEC50) of 6.81.

`COc1cc(C(=O)O)nc2ccc(N3CC4(CC(/C=C/c5c(-c6ccncc6Cl)noc5C5CC5)C4)C3)cc12` [Example 2, (E)-6-(6-(2-(3-(3-chloropyridin-4-yl)-5-cyclopropylisoxazol-4-yl)vinyl)-2-azaspiro[3.3]heptan-2-yl)-4-methoxyquinoline-2-carboxylic acid]: the pEC50 was 6.30.

Compound `O=C(O)c1cc(OC2CCC2)c2cc(N3CC4(CC(/C=C/c5c(-c6cccnc6C(F)(F)F)noc5C5CC5)C4)C3)ccc2n1` [Example 3, (E)-4-Cyclobutoxy-6-(6-(2-(5-cyclopropyl-3-(2-(trifluoromethyl)pyridin-3-yl)isoxazol-4-yl)vinyl)-2-azaspiro[3.3]heptan-2-yl)quinoline-2-carboxylic acid] had a pEC50 of 7.07.

On to `O=C(O)c1cc(C(F)(F)F)c2cc(N3CC4(CC(/C=C/c5c(-c6c(Cl)cccc6Cl)noc5C5CC5)C4)C3)ccc2n1` [Example 4], for which the pEC50 (unit inferred) was 7.22.

Compound `O=C(O)c1ccc(N2CC3(CC(/C=C/c4c(-c5c(Cl)cccc5Cl)noc4C4CC4)C3)C2)cc1` [Example 5] showed a pEC50 (unit inferred) of 6.89.

In turn, `O=C(O)c1cc(C(F)(F)F)c2cc(N3CC4(CC(/C=C/c5c(-c6ccncc6Cl)noc5C5CC5)C4)C3)ccc2n1` [Example 6] had a pEC50 (unit inferred) of 6.85.

As to `O=C(O)c1cc(C(F)(F)F)c2cc(N3CC4(CC(/C=C/c5c(-c6c(Cl)cncc6Cl)noc5C5CC5)C4)C3)ccc2n1` [Example 7], the pEC50 (unit inferred) was 6.28.

With `O=C(O)c1cc(C(F)(F)F)c2cc(N3CC4(CC(/C=C/c5c(-c6ccccc6C(F)(F)F)noc5C5CC5)C4)C3)ccc2n1` [Example 8], the pEC50 (unit inferred) was 6.86.

In the case of `Cc1cc(C(=O)O)nc2sc(N3CC4(CC(/C=C/c5c(-c6ccccc6C(F)(F)F)noc5C5CC5)C4)C3)nc12` [Example 9], where the note is “unit inferred”, the pEC50 was 6.57.

With `O=C(O)c1cc(F)c2nc(N3CC4(CC(/C=C/c5c(-c6c(Cl)cncc6Cl)noc5C5CC5)C4)C3)sc2c1` [Example 10], the pEC50 (unit inferred) is 6.18.

On to `CC(C)Oc1cc(C(=O)O)nc2ccc(N3CC4(CC(/C=C/c5c(-c6c(Cl)cncc6Cl)noc5C5CC5)C4)C3)cc12` [Example 11], for which the pEC50 (unit inferred) was 7.10.

As for `CC(C)Oc1cc(C(=O)O)nc2ccc(N3CC4(CC(/C=C/c5c(-c6ccccc6C(F)(F)F)noc5C5CC5)C4)C3)cc12` [Example 12], where the note is “unit inferred”, the pEC50 was 7.54.

The compound `Cc1nc(C(=O)O)cc2ccc(N3CC4(CC(/C=C/c5c(-c6c(Cl)cncc6Cl)noc5C5CC5)C4)C3)cc12` [Example 13] gave a pEC50 (unit inferred) of 6.37.

Compound `CCc1nc(C(=O)O)cc2ccc(N3CC4(CC(/C=C/c5c(-c6c(Cl)cncc6Cl)noc5C5CC5)C4)C3)cc12` [Example 14] gave a pEC50 (unit inferred) of 6.52.

As for `CC(C)Oc1cc(C(=O)O)nc2ccc(N3CC4(CC(/C=C/c5c(-c6ncccc6C(F)(F)F)noc5C5CC5)C4)C3)cc12` [Example 15], for the setting “unit inferred”, the pEC50 was 7.07.

As for `COc1cc(C(=O)O)nc2ccc(N3CC4(CC(/C=C/c5c(-c6ccccc6C(F)(F)F)noc5C5CC5)C4)C3)cc12` [Example 16], for the setting “unit inferred”, the pEC50 was 6.98.

`O=C(O)c1cc(OC2CCC2)c2cc(N3CC4(CC(/C=C/c5c(-c6c(Cl)cncc6Cl)noc5C5CC5)C4)C3)ccc2n1` [Example 17] had a pEC50 (unit inferred) of 7.07.

As to `O=C(O)c1cc(OC2COC2)c2cc(N3CC4(CC(/C=C/c5c(-c6ccccc6C(F)(F)F)noc5C5CC5)C4)C3)ccc2n1` [Example 18], the pEC50 (unit inferred) was 7.28.

For the setting “unit inferred”, `COc1nc(C(=O)O)cc2ccc(N3CC4(CC(/C=C/c5c(-c6ccccc6C(F)(F)F)noc5C5CC5)C4)C3)cc12` [Example 19] gave a pEC50 of 6.77.

Turning to `O=C(O)c1cc(O[C@@H]2CCOC2)c2cc(N3CC4(CC(/C=C/c5c(-c6ccccc6C(F)(F)F)noc5C5CC5)C4)C3)ccc2n1` [Example 20], the negative-log EC50 (pEC50) (unit inferred) is 7.48.

Compound `O=C(O)c1cc(O[C@H]2CCOC2)c2cc(N3CC4(CC(/C=C/c5c(-c6ccccc6C(F)(F)F)noc5C5CC5)C4)C3)ccc2n1` [Example 21] showed a pEC50 (unit inferred) of 7.74.

For `COc1cc(C(=O)O)nc2ccc(N3CC4(CC(/C=C/c5c(-c6cccnc6C(F)(F)F)noc5C5CC5)C4)C3)cc12` [Example 22], the pEC50 (unit inferred) was 6.95.

Compound `O=C(O)c1cc(OC2COC2)c2cc(N3CC4(CC(/C=C/c5c(-c6cccnc6C(F)(F)F)noc5C5CC5)C4)C3)ccc2n1` [Example 23] gave a pEC50 (unit inferred) of 6.78.

Regarding `O=C(O)c1cc(OC2COC2)c2cc(N3CC4(CC(/C=C/c5c(-c6c(Cl)cncc6Cl)noc5C5CC5)C4)C3)ccc2n1` [Example 24], under “unit inferred”, the pEC50 was 6.94.

The compound `CCOc1cc(C(=O)O)nc2ccc(N3CC4(CC(/C=C/c5c(-c6cccnc6C(F)(F)F)noc5C5CC5)C4)C3)cc12` [Example 25] had a pEC50 (unit inferred) of 6.82.

Compound `O=C(O)c1cc(O[C@@H]2CCOC2)c2cc(N3CC4(CC(/C=C/c5c(-c6cccnc6C(F)(F)F)noc5C5CC5)C4)C3)ccc2n1` [Example 26] had a pEC50 (unit inferred) of 6.64.

Compound `COc1cc(C(=O)O)nc2ccc(N3CC4(CC(/C=C/c5c(-c6c(Cl)cncc6Cl)noc5C5CC5)C4)C3)nc12` [Example 28] gave a pEC50 (unit inferred) of 5.79.

Compound `Cn1nc(C(=O)O)cc1OCC1CC2(CC(/C=C/c3c(-c4c(Cl)cncc4Cl)noc3C3CC3)C2)C1` (stereo not shown) [Example 45] gave a pEC50 (unit inferred) of 7.62.

Consider `O=C(O)c1cc(C(F)(F)F)c2cc(OCC3CC4(CC(/C=C/c5c(-c6c(Cl)cncc6Cl)noc5C5CC5)C4)C3)ccc2n1` (stereo not shown) [Example 46], for which the pEC50 (unit inferred) was 7.66.

Where the note is “unit inferred”, `O=C(O)c1cccc(OCC2CC3(CC(/C=C/c4c(-c5c(Cl)cncc5Cl)noc4C4CC4)C3)C2)c1` (stereo not shown) [Example 47] gave a pEC50 of 7.40.

Consider `NC(=O)c1cccc(OCC2CC3(CC(/C=C/c4c(-c5ccccc5C(F)(F)F)noc4C4CC4)C3)C2)c1` (stereo not shown) [Example 48], for which the pEC50 (unit inferred) is 6.67.

Under “unit inferred”, `NC(=O)Cc1ccc(OCC2CC3(CC(/C=C/c4c(-c5ccccc5C(F)(F)F)noc4C4CC4)C3)C2)cc1` (stereo not shown) [Example 49] gave a pEC50 of 6.75.

Regarding `Cc1cc(OCC2CC3(CC(/C=C/c4c(-c5ccccc5C(F)(F)F)noc4C4CC4)C3)C2)cnc1C(=O)O` (stereo not shown) [Example 50], the pEC50 (unit inferred) is 6.85.

As for `Cn1nc(C(=O)O)cc1OCC1CC2(CC(/C=C/c3c(-c4ccccc4C(F)(F)F)noc3C3CC3)C2)C1` (stereo not shown) [Example 51], for the setting “unit inferred”, the pEC50 was 7.00.

Regarding `O=C(O)c1cc(C(F)(F)F)c2cc(OCC3CC4(CC(/C=C/c5c(-c6ccccc6C(F)(F)F)noc5C5CC5)C4)C3)ccc2n1` (stereo not shown) [Example 52], the pEC50 (unit inferred) was 7.09.

The compound `O=C(O)c1ccc2cc(OCC3CC4(CC(/C=C/c5c(-c6ccccc6C(F)(F)F)noc5C5CC5)C4)C3)ccc2n1` (stereo not shown) [Example 53] gave a pEC50 (unit inferred) of 6.73.

These data come from patent publication US11286252B2, “Alkene spirocyclic compounds as farnesoid X receptor modulators” (BRISTOL-MYERS SQUIBB COMPANY, priority 2017, dated 2022).
